# What was measured:
# Assay in all cases: relative viability (nuclei count vs DMSO), 5 days (fraction); higher = more cells survive
# NCI-H650 = system: NCI-H650
# Summary of the method: (§1)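 Relative viability was taken as the ratio of nuclei in treated wells to nuclei in vehicle wells. Lung cancer cell lines in 1536-well plates received compounds by pin tool one day after seeding, either one drug alone or a fixed anchor-drug dose plus five library-drug doses (not always all listed) in √10 steps. Nuclei were counted on 4× images after 5 days of treatment, and values are medians of duplicate plates.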
# NCI-H441 = system: NCI-H441
# Summary of the method: as §1
# NCI-H2085 = system: NCI-H2085
# Summary of the method: as §1
# NCI-H2170 = system: NCI-H2170
# Summary of the method: as §1
# NCI-H2228 = system: NCI-H2228
# Summary of the method: as §1
# LOU-NH91 = system: LOU-NH91
# Summary of the method: as §1
# NCI-H727 = system: NCI-H727
# Summary of the method: as §1
# NCI-H1651 = system: NCI-H1651
# Summary of the method: as §1
# NCI-H1650 = system: NCI-H1650
# Summary of the method: as §1
# SW 900 = system: SW 900
# Summary of the method: as §1
# NCI-H2023 = system: NCI-H2023
# Summary of the method: as §1
# HARA = system: HARA
# Summary of the method: as §1
# NCI-H2087 = system: NCI-H2087
# Summary of the method: as §1
# EPLC-272H = system: EPLC-272H
# Summary of the method: as §1
# SW 1573 = system: SW 1573
# Summary of the method: as §1
# NCI-H1975 = system: NCI-H1975
# Summary of the method: as §1
# H3255 = system: H3255
# Summary of the method: as §1
# NCI-H23 = system: NCI-H23
# Summary of the method: as §1
# PC-3 [JPC-3] = system: PC-3 [JPC-3]
# Summary of the method: as §1
# NCI-H838 = system: NCI-H838
# Summary of the method: as §1
# UMC-11 = system: UMC-11
# Summary of the method: as §1
# LC-2-ad = system: LC-2-ad
# Summary of the method: as §1
# NCI-H2009 = system: NCI-H2009
# Summary of the method: as §1
compound,measurement,setting,value
Cc1cn(-c2cc(NC(=O)c3ccc(C)c(Nc4nccc(-c5cccnc5)n4)c3)cc(C(F)(F)F)c2)cn1 [Nilotinib] + N=C(N)NC(=N)NCCc1ccccc1 [Phenformin] (partner 250 µM),relative viability,NCI-H650; first compound 0.001 µM,0.444
same,relative viability,NCI-H650; first compound 0.003162 µM,0.428
same,relative viability,NCI-H650; first compound 0.01 µM,0.447
same,relative viability,NCI-H650; first compound 0.03162 µM,0.38
same,relative viability,NCI-H650; first compound 0.1 µM,0.397
same,relative viability,NCI-H441; first compound 0.001 µM,0.798
same,relative viability,NCI-H441; first compound 0.003162 µM,0.89
same,relative viability,NCI-H441; first compound 0.01 µM,0.896
same,relative viability,NCI-H441; first compound 0.03162 µM,0.648
same,relative viability,NCI-H441; first compound 0.1 µM,0.881
same,relative viability,NCI-H2085; first compound 0.001 µM,0.76
same,relative viability,NCI-H2085; first compound 0.003162 µM,0.749
same,relative viability,NCI-H2085; first compound 0.01 µM,0.769
same,relative viability,NCI-H2085; first compound 0.03162 µM,0.493
same,relative viability,NCI-H2085; first compound 0.1 µM,0.581
same,relative viability,NCI-H2170; first compound 0.001 µM,0.408
same,relative viability,NCI-H2170; first compound 0.003162 µM,0.432
same,relative viability,NCI-H2170; first compound 0.01 µM,0.409
same,relative viability,NCI-H2170; first compound 0.03162 µM,0.394
same,relative viability,NCI-H2170; first compound 0.1 µM,0.363
same,relative viability,NCI-H2228; first compound 0.003162 µM,0.388
same,relative viability,NCI-H2228; first compound 0.01 µM,0.383
same,relative viability,NCI-H2228; first compound 0.03162 µM,0.259
same,relative viability,NCI-H2228; first compound 0.1 µM,0.278
same,relative viability,LOU-NH91; first compound 0.001 µM,0.752
same,relative viability,LOU-NH91; first compound 0.003162 µM,0.736
same,relative viability,LOU-NH91; first compound 0.01 µM,0.861
same,relative viability,LOU-NH91; first compound 0.03162 µM,0.663
same,relative viability,LOU-NH91; first compound 0.1 µM,0.75
same,relative viability,NCI-H727; first compound 0.001 µM,0.579
same,relative viability,NCI-H727; first compound 0.003162 µM,0.577
same,relative viability,NCI-H727; first compound 0.01 µM,0.419
same,relative viability,NCI-H727; first compound 0.03162 µM,0.379
same,relative viability,NCI-H727; first compound 0.1 µM,0.346
same,relative viability,NCI-H1651; first compound 0.001 µM,0.346
same,relative viability,NCI-H1651; first compound 0.003162 µM,0.392
same,relative viability,NCI-H1651; first compound 0.01 µM,0.437
same,relative viability,NCI-H1651; first compound 0.03162 µM,0.308
same,relative viability,NCI-H1651; first compound 0.1 µM,0.356
same,relative viability,NCI-H1650; first compound 0.001 µM,0.464
same,relative viability,NCI-H1650; first compound 0.003162 µM,0.437
same,relative viability,NCI-H1650; first compound 0.01 µM,0.385
same,relative viability,NCI-H1650; first compound 0.03162 µM,0.32
same,relative viability,NCI-H1650; first compound 0.1 µM,0.307
same,relative viability,SW 900; first compound 0.001 µM,0.605
same,relative viability,SW 900; first compound 0.003162 µM,0.634
same,relative viability,SW 900; first compound 0.01 µM,0.612
same,relative viability,SW 900; first compound 0.03162 µM,0.44
same,relative viability,SW 900; first compound 0.1 µM,0.408
same,relative viability,NCI-H2023; first compound 0.001 µM,0.461
same,relative viability,NCI-H2023; first compound 0.003162 µM,0.455
same,relative viability,NCI-H2023; first compound 0.01 µM,0.571
same,relative viability,NCI-H2023; first compound 0.03162 µM,0.325
same,relative viability,NCI-H2023; first compound 0.1 µM,0.361
same,relative viability,HARA; first compound 0.001 µM,0.402
same,relative viability,HARA; first compound 0.003162 µM,0.555
same,relative viability,HARA; first compound 0.01 µM,0.613
same,relative viability,HARA; first compound 0.03162 µM,0.29
same,relative viability,HARA; first compound 0.1 µM,0.322
same,relative viability,NCI-H2087; first compound 0.001 µM,0.403
same,relative viability,NCI-H2087; first compound 0.003162 µM,0.518
same,relative viability,NCI-H2087; first compound 0.01 µM,0.519
same,relative viability,NCI-H2087; first compound 0.03162 µM,0.301
same,relative viability,NCI-H2087; first compound 0.1 µM,0.215
same,relative viability,EPLC-272H; first compound 0.001 µM,0.305
same,relative viability,EPLC-272H; first compound 0.003162 µM,0.283
same,relative viability,EPLC-272H; first compound 0.01 µM,0.262
same,relative viability,EPLC-272H; first compound 0.03162 µM,0.234
same,relative viability,EPLC-272H; first compound 0.1 µM,0.298
same,relative viability,SW 1573; first compound 0.001 µM,0.405
same,relative viability,SW 1573; first compound 0.003162 µM,0.445
same,relative viability,SW 1573; first compound 0.01 µM,0.412
same,relative viability,SW 1573; first compound 0.03162 µM,0.179
same,relative viability,SW 1573; first compound 0.1 µM,0.289
same,relative viability,NCI-H1975; first compound 0.001 µM,0.406
same,relative viability,NCI-H1975; first compound 0.003162 µM,0.438
same,relative viability,NCI-H1975; first compound 0.01 µM,0.413
same,relative viability,NCI-H1975; first compound 0.03162 µM,0.363
same,relative viability,NCI-H1975; first compound 0.1 µM,0.378
same,relative viability,H3255; first compound 0.001 µM,0.382
same,relative viability,H3255; first compound 0.003162 µM,0.303
same,relative viability,H3255; first compound 0.03162 µM,0.403
same,relative viability,H3255; first compound 0.1 µM,0.407
same,relative viability,NCI-H23; first compound 0.001 µM,0.706
same,relative viability,NCI-H23; first compound 0.003162 µM,0.58
same,relative viability,NCI-H23; first compound 0.01 µM,0.891
same,relative viability,NCI-H23; first compound 0.03162 µM,0.624
same,relative viability,NCI-H23; first compound 0.1 µM,0.594
same,relative viability,PC-3 [JPC-3]; first compound 0.001 µM,0.463
same,relative viability,PC-3 [JPC-3]; first compound 0.003162 µM,0.49
same,relative viability,PC-3 [JPC-3]; first compound 0.01 µM,0.475
same,relative viability,PC-3 [JPC-3]; first compound 0.03162 µM,0.443
same,relative viability,PC-3 [JPC-3]; first compound 0.1 µM,0.482
same,relative viability,NCI-H838; first compound 0.001 µM,0.599
same,relative viability,NCI-H838; first compound 0.003162 µM,0.613
same,relative viability,NCI-H838; first compound 0.01 µM,0.695
same,relative viability,NCI-H838; first compound 0.03162 µM,0.492
same,relative viability,NCI-H838; first compound 0.1 µM,0.51
same,relative viability,UMC-11; first compound 0.001 µM,0.312
same,relative viability,UMC-11; first compound 0.003162 µM,0.344
same,relative viability,UMC-11; first compound 0.01 µM,0.324
same,relative viability,UMC-11; first compound 0.1 µM,0.217
same,relative viability,LC-2-ad; first compound 0.001 µM,0.647
same,relative viability,LC-2-ad; first compound 0.003162 µM,0.659
same,relative viability,LC-2-ad; first compound 0.01 µM,0.557
same,relative viability,LC-2-ad; first compound 0.03162 µM,0.609
same,relative viability,LC-2-ad; first compound 0.1 µM,0.562
same,relative viability,NCI-H2009; first compound 0.001 µM,0.417
same,relative viability,NCI-H2009; first compound 0.003162 µM,0.464
same,relative viability,NCI-H2009; first compound 0.01 µM,0.463
same,relative viability,NCI-H2009; first compound 0.03162 µM,0.387
same,relative viability,NCI-H2009; first compound 0.1 µM,0.338

# — the supplement of paper PMC10307832
